These results are taken from patent publication US20220348876A1, “METABOLISM GUIDES DEFINITIVE LINEAGE SPECIFICATION DURING ENDOTHELIAL TO HEMATOPOIETIC TRANSITION” (Amniotics AB, priority 2019, published 2022).

Assay [1] concerns LT-HSCs. Description: CFU assay of LT-HSCs sorted from E14.5 fetal livers of treated embryos. Format: in vivo, mice. Particulars: DCA-treated embryos vs control and UK5099. On the procedure:
(§1) Pregnant female C57Bl/6xB6.SJL mice were injected intraperitoneally at E9.5 with UK5099 (4 mg/kg) or DCA (200 mg/kg) or PBS (control). Embryos were harvested at E14.5 and individually weighed and processed. Fetal livers were dissected and homogenized in 800 μL ice cold PBS supplemented with 2% fetal bovine serum (FBS) and FL cells were washed in PBS with 2% FBS. For the differentiated lineage panel, cells were stained with B220 and CD19 (B-cell markers)-PE, CD3e-APC, Ter119-PeCy7 and CD71-FITC and analyzed on a BD FACSARIA III. For the HSC panel, samples were first treated with ammonium chloride solution (STEMCELL Technologies, France) to lyse red blood cells, washed twice in ice cold PBS with 2% FBS, stained with CD3e, B220, Ter119, Gr1 (Lineage)-PeCy5, c-Kit-Efluor780, Sca1-BV421, CD48-FITC, CD150-BV605 and 7-AAD (for dead cell exclusion) and analyzed on a BD FACSARIA III. […] For plating of CFU assays, 100 LT-HSCs were sorted (gating strategy shown in FIG. 13, d) and resuspended in 3.0 mL Methocult M3434 (STEMCELL Technologies, France). Each mixture was divided onto 2 wells of a non-tissue culture treated 6-well plate. Following a 14-day incubation in a humidified incubator at 37° C., 5% CO2, 20% O2, colonies were morphologically distinguished and scored.

Assay [2] deals with NSG mice. Put plainly: NSG mice transplantation of DCA-treated HE cells. The format is in vivo. Particulars: week 8; text does not separate DCA from control. Here is the method: Sorted human HE cells (350,000) were mixed with OP9-DL1 stroma (60,000) and subcultured for 3 days with or without DCA (3 mM) on Matrigel (16 μg/cm^2, Corning)-coated 12-well plates in HE medium^30. Between 100,000-150,000 cells from control or DCA samples were transplanted into sub-lethally irradiated (300 cGy) 8-week-old female NOD/Cg-Prkdc^scid Il2rg^tm1Wjl/SzJ mice (NSG, The Jackson Laboratory) together with 20,000 whole bone marrow support cells from C57Bl/6.SJL mice (CD45.1+/CD45.2+, in house breeding). Cells were transplanted in single cell solution in 250 μL PBS with 2% FBS through intravenous tail vein injection. Drinking water of transplanted NSG mice was supplemented with ciprofloxacin (125 mg/L, HEXAL) for 3 weeks after transplantation to prevent infection. Mice were housed in a controlled environment with 12-hour light-dark cycles with chow and water provided ad libitum. Experiments and animal care were performed in accordance with the Lund University Animal Ethical Committee.
Peripheral blood (PB) was collected from the tail vein into EDTA-coated microvette tubes (Sarstedt, Cat #20.1341.100). […]
Bone marrow was analyzed at the 12-week transplantation endpoint. […]

For assay [3], the system named is HE cells. Description: globin transcript q-PCR in CFU colonies. Format: cell-based, human. As to conditions: normalized to KLF1, relative to non-treated. On the procedure: Subcultured HE cells were treated with StemPro Accutase Cell Dissociation Reagent for 2 minutes at 37° C. and dissociated cells were resuspended in 3 ml Methocult H4230 (STEMCELL Technologies, France) (prepared according to manufacturer's instructions, with 20 mL Iscove's Modified Dulbecco's Medium containing 2.5 μg hSCF, 5 μg GM-CSF, 2.5 μg IL-3 and 500 U EPO). Each mixture was divided onto 2 wells of a non-tissue culture treated 6-well plate. Following a 12-day incubation in a humidified incubator at 37° C., 5% CO2, 20% O2, colonies were morphologically distinguished and scored. For globin analysis, colonies in Methocult wells were harvested with PBS, washed thoroughly and frozen in RLT buffer with β-mercaptoethanol. Following RNA extraction and RT (Qiagen), gene expression was assessed with taqman probes by q-PCR. The taqman probes used in this study are HBA1/2 (Hs00361191_g1), HBE1 (Hs00362216_m1), HBG2/1 (Hs00361131_g1) and KLF1 (Hs00610592_m1).

Assay [4] relates to C57Bl/6xB6.SJL mice. Description: In vivo compound injection of pregnant mice, fetal liver analysis at E14.5. Here is the method:
as §1

The test system of assay [5] is EHT cells. Put plainly: EHT cell subculture with compounds, flow cytometry. The format is cell-based, human. As to conditions: deriving from EHT cells, day 6; UK5099 10 μM. In general terms: A flow cytometer gives signals particle by particle.
Excerpt: The RB9-CB1 human iPSC line was co-cultured with mouse embryonic fibroblasts (MEFs, Millipore), passaged every six days and processed to form embryoid bodies (EBs) as described previously (Guibentif, C. et al. Cell Reports 19, 10-19 (2017)). The differentiation protocol used in this study was previously described (Ditadi, A. & Sturgeon, C. M. Methods 101, 65-72 (2016)), however, small modifications were made to induce both primitive and definitive hematopoiesis, as indicated below and in FIG. 7, a. Newly-formed EBs were first kept in SFD medium supplemented with 1 ng/ml Activin A (on days 0-2) and 3 μM CHIR99021 (on day 2 only). At day 3, media was switched to “Day 3-SP34” medium supplemented with 1 ng/ml Activin A (on day 3 only) and 3 μM CHIR99021 (on day 3 only) until day 6. On day 6, media was replaced by “Day 6-SP34” medium, until day 8. […]
To measure proliferation, cells were processed with the CellTrace Violet (CTV) kit according to manufacturer's instructions (10-minute incubation) and fluorescence was measured on a BD LSRFortessa. […] Flow cytometry outputs were analyzed on FlowJo Software, with initial gatings on SSC-A/FSC-A, FSC-H/FSC-A, SSC-H/SSC-A and 7-AAD to exclude doublets and dead cells in all experiments.
In assay [6] the test system is HE cells. Description: Lymphoid differentiation assay on OP9-DL1 stroma. Format: cell-based, human. As to conditions: 3-day subculture with UK5099 10 μM or DCA 3 mM, then 35-day co-culture, vs untreated. Here is the method:
Subculture day 3 HE cells cultured in the presence of UK5099 (10 μM), DCA (3 mM), or in glutamine-free medium with DMK (1.75 mM), nucleosides (1×) or NEAAs (1×), as indicated, were collected after a 2-minute incubation at 37° C. with StemPro Accutase Cell Dissociation Reagent and seeded onto 80% confluent OP9-DL1 stroma. Cells were cultured in OP9 medium with SCF (10 ng/ml), FLT3-L (10 ng/ml), IL-2 (5 ng/ml), IL-7 (5 ng/ml, first 15 days only) and IL-15 (10 ng/ml) with passaging onto new OP9-DL1 stroma every week, as described previously (Renoux, V. M. et al. Immunity 43, 394-407 (2015)). At day 35 of co-culture, cells were analyzed on a BD LSRFortessa.

Structures are written as SMILES.

Turning to `O=C(O)C(Cl)Cl` [DCA, dichloroacetate], the “decrease in the BFU-E to CFU-GM ratio” value in assay [1] is 80%. For the same molecule, the “engraftment: human CD45+ cells in the peripheral blood” value in assay [2] is on record as “around 1%”.
In the case of `N#C/C(=C\c1cn(-c2ccccc2)c2ccccc12)C(=O)O` [UK5099], in assay [3], the “HBA1-2 (adult globin) expression” value is on record as “did not have an effect”, the “HBE1 (embryonic) globin transcripts” value was “significant increase” and the “HBG1-2 (fetal) globin transcripts” value is listed as “significant increase”. Also, in assay [4] (UK5099 4 mg/kg i.p. at E9.5), the “effect on in vivo EHT and hematopoiesis” value is on record as “No significant effect”. Also, the “frequency of phenotypic long-term HSCs (LT-HSCs)” value in assay [4] (fetal liver E14.5, i.p. at E9.5, UK5099 4 mg/kg or DCA 200 mg/kg) is recorded as “not affected”. In addition, in assay [5], the “decrease in the CD43+CD45+ population” value is 2 -fold. Further, in assay [6], the “NK cell differentiation (CD45+CD56+)” value is “impaired NK cell formation”.
